Reference: patent US11286281B2, “Homodetic cyclic peptides targeting alpha-4-beta-7 integrin” (priority 2017, dated 2022)
Values joined by “and” are separate entries in the source; they are usually repeats but may differ in a detail not shown here. Identical values can stand only once. Numbered stars: 1 amine (or outer) side, 2 acyl side, 3 side chain; on linkers, the order of the positions; unused ones are H or OH. Square brackets hold non-standard residues; d marks the D form. Peptide text beside a SMILES is read from it. X1 = O=C(c1ccc(-c2ccc(N3CCNCC3)cc2)c(CN[*:1])c1)[*:2]

Columns and labels:
[1] = target: T1, integrin α4β7 (Homo sapiens, UniProt P13612+P26010); test: Integrin α4β7-MAdCAM human cell adhesion assay (RPMI8866 cells); format: cell-based; set-up: host or cells: RPMI8866 human cells; conditions: for IC50: adhesion of RPMI8866 cells to MAdCAM-1 coated plates
T1 sequence (P13612 34-1032): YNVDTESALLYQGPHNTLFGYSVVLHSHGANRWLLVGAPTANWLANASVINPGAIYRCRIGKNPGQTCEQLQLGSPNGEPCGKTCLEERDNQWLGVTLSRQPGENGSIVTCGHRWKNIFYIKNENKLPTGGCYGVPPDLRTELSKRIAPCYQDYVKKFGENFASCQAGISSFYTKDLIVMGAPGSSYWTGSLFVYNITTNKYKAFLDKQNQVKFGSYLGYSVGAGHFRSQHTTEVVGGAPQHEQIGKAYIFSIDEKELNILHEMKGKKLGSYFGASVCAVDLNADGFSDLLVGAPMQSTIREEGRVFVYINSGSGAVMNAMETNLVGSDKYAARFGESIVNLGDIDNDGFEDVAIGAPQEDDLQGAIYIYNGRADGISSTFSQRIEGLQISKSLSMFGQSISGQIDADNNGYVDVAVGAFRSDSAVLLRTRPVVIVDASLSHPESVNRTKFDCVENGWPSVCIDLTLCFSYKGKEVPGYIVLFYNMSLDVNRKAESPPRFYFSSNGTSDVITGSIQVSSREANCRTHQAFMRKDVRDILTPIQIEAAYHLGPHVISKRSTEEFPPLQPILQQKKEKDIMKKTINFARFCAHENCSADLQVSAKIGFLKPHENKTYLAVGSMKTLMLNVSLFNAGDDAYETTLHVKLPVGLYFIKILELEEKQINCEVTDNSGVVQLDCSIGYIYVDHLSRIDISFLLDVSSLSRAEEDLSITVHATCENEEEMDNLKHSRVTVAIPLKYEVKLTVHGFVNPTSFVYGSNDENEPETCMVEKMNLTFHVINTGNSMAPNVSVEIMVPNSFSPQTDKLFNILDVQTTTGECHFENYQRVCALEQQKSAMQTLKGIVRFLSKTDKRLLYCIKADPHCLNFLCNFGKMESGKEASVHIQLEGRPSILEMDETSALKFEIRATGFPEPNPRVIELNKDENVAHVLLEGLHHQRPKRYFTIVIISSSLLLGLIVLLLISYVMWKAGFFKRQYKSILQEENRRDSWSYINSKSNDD
T1 sequence (P26010 20-798): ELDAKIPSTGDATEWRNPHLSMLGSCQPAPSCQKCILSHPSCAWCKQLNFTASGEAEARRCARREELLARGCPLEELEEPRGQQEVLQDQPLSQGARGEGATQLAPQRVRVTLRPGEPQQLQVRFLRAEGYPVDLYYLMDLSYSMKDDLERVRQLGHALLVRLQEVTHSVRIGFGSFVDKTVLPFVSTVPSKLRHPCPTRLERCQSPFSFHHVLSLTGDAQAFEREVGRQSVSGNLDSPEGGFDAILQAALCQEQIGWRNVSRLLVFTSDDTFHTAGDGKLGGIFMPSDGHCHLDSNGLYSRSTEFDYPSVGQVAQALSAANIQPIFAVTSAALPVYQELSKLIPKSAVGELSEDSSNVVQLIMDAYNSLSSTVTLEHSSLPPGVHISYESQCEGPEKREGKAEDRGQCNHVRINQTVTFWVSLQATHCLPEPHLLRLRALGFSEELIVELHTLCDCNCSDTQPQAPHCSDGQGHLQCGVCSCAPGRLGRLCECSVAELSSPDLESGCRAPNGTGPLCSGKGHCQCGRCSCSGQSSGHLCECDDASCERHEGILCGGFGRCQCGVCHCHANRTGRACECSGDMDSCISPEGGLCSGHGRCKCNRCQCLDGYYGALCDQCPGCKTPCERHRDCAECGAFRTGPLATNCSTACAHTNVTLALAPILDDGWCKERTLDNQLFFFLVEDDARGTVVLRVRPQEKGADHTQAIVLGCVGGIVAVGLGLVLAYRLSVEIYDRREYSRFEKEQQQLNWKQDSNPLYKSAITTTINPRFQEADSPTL
Method: RPM18866 human cells (Sigma #95041316) were cultured in RPMI 1640 medium (HyClone SH30027.1) supplemented with 10% FBS (Seradigm) and 1% Penicillin-Streptomycin. […] RPM18866 cells were resuspended at 10 million cells/ml in PBS containing […] and incubated at 37° C. for 30 min in a 50 ml tube. […] The plate was emptied by inverting and blotting on paper towels and washed manually twice with PBS. 100 μl PBS was then added to each well. The fluorescence was read (Ex495/Em515) using a plate reader (Tecan Infinite 1000). To calculate the dose response, the fluorescence value of control wells not containing cells was subtracted from each test well.

[2] = target: integrin α4β1 (Homo sapiens, UniProt P05556+P13612); test: Integrin α4β1-VCAM human cell adhesion assay (RAMOS cells); format: cell-based; set-up: host or cells: RAMOS human cells; conditions: adhesion of RAMOS cells to VCAM-1 coated plates
integrin α4β1, sequence (P05556 21-798, one chain of several): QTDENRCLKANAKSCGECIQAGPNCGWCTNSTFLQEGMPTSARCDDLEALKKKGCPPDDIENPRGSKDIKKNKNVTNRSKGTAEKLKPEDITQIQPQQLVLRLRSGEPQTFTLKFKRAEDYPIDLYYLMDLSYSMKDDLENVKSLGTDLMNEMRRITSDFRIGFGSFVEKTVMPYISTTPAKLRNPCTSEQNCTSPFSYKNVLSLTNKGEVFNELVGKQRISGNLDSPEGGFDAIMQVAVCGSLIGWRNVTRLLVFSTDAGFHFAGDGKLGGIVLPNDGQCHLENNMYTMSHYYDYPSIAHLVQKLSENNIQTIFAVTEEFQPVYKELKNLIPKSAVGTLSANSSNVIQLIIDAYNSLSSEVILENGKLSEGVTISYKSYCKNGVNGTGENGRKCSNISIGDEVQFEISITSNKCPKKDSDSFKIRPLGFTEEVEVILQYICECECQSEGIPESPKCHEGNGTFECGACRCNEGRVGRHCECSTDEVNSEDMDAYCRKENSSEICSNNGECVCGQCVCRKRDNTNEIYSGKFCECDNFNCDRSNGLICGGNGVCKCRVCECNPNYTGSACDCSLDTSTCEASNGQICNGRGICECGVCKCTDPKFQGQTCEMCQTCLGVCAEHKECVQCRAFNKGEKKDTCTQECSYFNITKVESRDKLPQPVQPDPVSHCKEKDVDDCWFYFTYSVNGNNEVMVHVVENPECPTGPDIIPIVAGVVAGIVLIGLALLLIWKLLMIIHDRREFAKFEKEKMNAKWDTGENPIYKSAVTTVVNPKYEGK
Method: Integrin α4β1-VCAM Human Cell Adhesion Assay
RAMOS human cells (ATCC CRL-1596) were cultured in RPMI 1640 medium (HyClone SH30027.1) supplemented with 10% FBS (Seradigm) and 1% Penicillin-Streptomycin. A 96-well plate (Costar, 3603) was coated with 100 μl/well of recombinant human VCAM-1 Fc Chimera (R&D systems, 862-VC-100) solution at 0.25 μg/ml in coating buffer (50 mM sodium carbonate, pH 9.6). The plate was incubated overnight at 4° C. and washed twice with […] per well wash buffer (0.05% Tween 20 in PBS), blocked with 250 μl per well blocking buffer (1% non-fat dry milk in PBS), for 1 hour at room temperature. During blocking step, RAMOS cells were resuspended at 10 million cells/ml in PBS containing […] and incubated at 37° C. for 30 min in a 50 ml tube. PBS was added to fill the tube, cells were spun down and resuspended in RPMI 1640 medium to 2 million/mi. Compounds were diluted by serial dilution in binding buffer (1.5 mM CaCl2, 0.5 mM MnCl2, 50 mM Tris-HCl, pH 7.5) to a final volume of 50 μl per well at 2× concentration. […] After last wash, 100 μL of PBS was added to wells and the fluorescence was read (Ex495/Em515) using a plate reader (Tecan Infinite 1000). To calculate the dose response, the fluorescence value of control wells not containing cells was subtracted from each test well.

Compound | fold difference in IC50 between RAMOS and RPMI8866 cell adhesion assays, in favor of integrin α4β7 ([1]; RAMOS (α4β1) versus RPMI8866 (α4β7)) [fold] | IC50 [1] | IC50 [2]
CC(C)C[C@@H]1NC(=O)c2ccc(-c3ccc(N4CCNCC4)cc3)c(c2)CNC(=O)[C@@H]2CCCN2C(=O)[C@H](C)NC(=O)[C@H]([C@@H](C)O)NC(=O)[C@H](CC(=O)O)NC1=O [Compound 8] (cyclo(P[X1]LDTA)) | 2.2 | ~202 nM and 202 nM | ~451 nM and 451 nM
CC(C)C[C@@H]1NC(=O)c2ccc(-c3ccc(N4CCN(C(=O)COCC(=O)N5CCN(c6ccc(-c7ccc8cc7CNC(=O)[C@@H]7CCCN7C(=O)[C@H](C)NC(=O)[C@H]([C@@H](C)O)NC(=O)[C@H](CC(=O)O)NC(=O)[C@H](CC(C)C)NC8=O)cc6)CC5)CC4)cc3)c(c2)CNC(=O)[C@@H]2CCCN2C(=O)[C@H](C)NC(=O)[C@H]([C@@H](C)O)NC(=O)[C@H](CC(=O)O)NC1=O [Compound 17] | – | ~19 nM | –
CC(C)C[C@@H]1NC(=O)c2ccc(-c3ccc(N4CCN(Cc5cccc(CN6CCN(c7ccc(-c8ccc9cc8CNC(=O)[C@@H]8CCCN8C(=O)[C@H](C)NC(=O)[C@H]([C@@H](C)O)NC(=O)[C@H](CC(=O)O)NC(=O)[C@H](CC(C)C)NC9=O)cc7)CC6)c5)CC4)cc3)c(c2)CNC(=O)[C@@H]2CCCN2C(=O)[C@H](C)NC(=O)[C@H]([C@@H](C)O)NC(=O)[C@H](CC(=O)O)NC1=O [Compound 18] | – | 8.4 nM | 184 nM
